{"source": "patent US20230279018A1", "about": "“AP[…] INHIBITION” (priority 2020, published 2023)", "key": {"[1]": {"target": "T1, Pv (Plasmodium vivax) cFRS (Plasmodium vivax, UniProt A5K9S0)", "T1 construct": "Full-length PvcFRS was also purified according to the same protocol; His6 (encoded by vector pETM11); made in house; host or cells: E. coli strain B834", "assay": "malachite green-based aminoacylation assay, PvcFRS", "format": "biochemical", "conditions": "aminoacylation activity", "excerpt": "(§1) EC50 assays were run as described in Int'l Pub Nos. WO 2015070204, WO 2018175385, and Kato, N, et al. Nature 538 (2016): 344-349, which are hereby incorporated by reference in its entirety. The inhibition of the aminoacylation activity of Pf (Plasmodium falciparum), Pv (Plasmodium vivax), Hs (Human) and Pf-Mut (L550V) cFRS enzymes by Compound 1 are illustrated in FIG. 1.\nThe enzymatic activity of purified heterodimeric PfcFRS using malachite green-based aminoacylation assays with substrates L-Phe and ATP was also measured as described in Cestari, I. et al., J Biomol. Screen. 18 (2013): 490-497 and Kato, N, et al. Nature 538 (2016): 344-349, which are hereby incorporated by reference in its entirety. […] Enzymatic reactions (50 μl total volume) were performed in clear, flat-bottomed, 96-well plates (Costar 96-well standard microplates). The reaction mixture was incubated for 2 h at 37° C. The reaction was stopped by adding 12.5 μl of malachite green solution to the reaction mixture and levels of inorganic phosphate (Pi) were detected after incubation of 5 min at room temperature. Absorbance was the measured at 620 nm using a Spectramax M2 (Molecular Devices). Reactions without FRS enzyme were performed as background controls, values of which were subtracted from the reactions with enzyme. […]"}, "PfcFRS": {"target": "T2, PfcFRS (Plasmodium falciparum, UniProt Q8I246)", "T2 sequence (Q8I246 1-575)": "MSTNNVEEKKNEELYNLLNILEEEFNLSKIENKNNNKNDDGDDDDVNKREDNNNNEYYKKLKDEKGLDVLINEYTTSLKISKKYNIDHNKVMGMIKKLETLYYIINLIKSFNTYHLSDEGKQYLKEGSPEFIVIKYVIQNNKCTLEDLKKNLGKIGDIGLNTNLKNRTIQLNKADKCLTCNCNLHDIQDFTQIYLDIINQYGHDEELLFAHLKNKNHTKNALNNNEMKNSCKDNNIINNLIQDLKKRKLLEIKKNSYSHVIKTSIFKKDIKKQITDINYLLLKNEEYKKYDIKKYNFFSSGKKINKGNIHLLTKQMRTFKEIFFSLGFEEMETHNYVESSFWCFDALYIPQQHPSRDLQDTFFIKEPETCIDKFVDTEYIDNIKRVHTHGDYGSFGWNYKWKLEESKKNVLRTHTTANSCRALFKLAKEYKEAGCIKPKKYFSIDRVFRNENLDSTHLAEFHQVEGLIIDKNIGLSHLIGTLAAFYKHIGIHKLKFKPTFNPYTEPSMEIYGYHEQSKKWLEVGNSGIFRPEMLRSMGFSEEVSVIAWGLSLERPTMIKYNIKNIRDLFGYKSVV", "T2 sequence (Q8IIW2 1-623 partner)": "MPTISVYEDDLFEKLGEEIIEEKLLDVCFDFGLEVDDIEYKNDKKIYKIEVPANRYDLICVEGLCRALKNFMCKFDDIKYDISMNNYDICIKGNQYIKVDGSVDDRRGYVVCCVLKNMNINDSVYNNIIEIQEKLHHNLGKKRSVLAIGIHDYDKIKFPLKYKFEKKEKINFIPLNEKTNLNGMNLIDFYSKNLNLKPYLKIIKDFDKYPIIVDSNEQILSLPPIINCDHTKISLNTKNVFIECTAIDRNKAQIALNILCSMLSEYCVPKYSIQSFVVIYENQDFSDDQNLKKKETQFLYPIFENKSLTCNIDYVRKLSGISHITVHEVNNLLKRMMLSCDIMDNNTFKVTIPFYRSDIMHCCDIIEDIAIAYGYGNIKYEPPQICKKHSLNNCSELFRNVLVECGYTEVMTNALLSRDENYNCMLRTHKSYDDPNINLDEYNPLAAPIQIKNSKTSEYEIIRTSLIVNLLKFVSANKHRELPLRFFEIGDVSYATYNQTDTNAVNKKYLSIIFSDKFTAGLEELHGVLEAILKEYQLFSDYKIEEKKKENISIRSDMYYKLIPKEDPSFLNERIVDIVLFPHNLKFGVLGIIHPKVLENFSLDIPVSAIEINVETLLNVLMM", "assay": "malachite green-based aminoacylation assay, PfcFRS", "format": "biochemical", "excerpt": "as §1\nThe enzymatic activity of purified heterodimeric PfcFRS using malachite green-based aminoacylation assays with substrates L-Phe and ATP was also measured as described in Cestari, I. et al., J Biomol. Screen. 18 (2013): 490-497 and Kato, N, et al. Nature 538 (2016): 344-349, which are hereby incorporated by reference in its entirety. […] Enzymatic reactions (50 μl total volume) were performed in clear, flat-bottomed, 96-well plates (Costar 96-well standard microplates). The reaction mixture was incubated for 2 h at 37° C. The reaction was stopped by adding 12.5 μl of malachite green solution to the reaction mixture and levels of inorganic phosphate (Pi) were detected after incubation of 5 min at room temperature. Absorbance was the measured at 620 nm using a Spectramax M2 (Molecular Devices). Reactions without FRS enzyme were performed as background controls, values of which were subtracted from the reactions with enzyme. Compound 1 was added to the aminoacylation assay reaction buffer in varying concentrations ranging from 0.1 nM to 10,000 nM.\nData sets were then globally fitted to the appropriate model (with equations (1) and (2) used for competitive and mixed inhibition respectively).\nwhere v is the reaction rate, Km is the Michaelis-Menten constant, Vmax is the maximum reaction velocity, Ki is the inhibitor constant, [I] is the concentration of inhibitor (Compound 1) and [S] is the concentration of substrate.\nThe data is shown for three replicates as the mean±SD in FIGS. 2A and 2B. […] Specifically, enzyme activity was evaluated at a fixed saturating concentration of one substrate (L-Phe or ATP) and varying concentrations the other at different inhibitor concentrations. The experimental data were fit to the Michaelis-Menten equation that produced Lineweaver-Burk plots as described above. […] The mode of inhibition was then analyzed using ATP as the variable-concentration substrate (FIG. 2B). The data were then fit to the modified high-substrate inhibition Michaelis-Menten equation that led to the corresponding double-reciprocal plot and its inhibition profile."}}, "note": "Where two headings read alike, the source gives them in different places."}
{"smiles": "COC[C@@H]1[C@H](c2ccc(C#Cc3ccccc3)cc2)[C@@H]2CN(C(=O)Nc3ccc(OC4CC4)cc3)C[C@@H](O)[C@@H](O)CN12", "note": "[Compound 1, (3S,4R,8R,9R,10S)—N-(4-cyclopropoxyphenyl)-3,4-dihydroxy-10-(methoxymethyl)-9-(4-(phenylethynyl)phenyl)-1,6-diazabicyclo[6.2.0]decane-6-carboxamide]", "values": [{"measurement": "IC50", "setting": "[1]", "value": 0.025, "unit": "µM"}, {"measurement": "mode of inhibition with respect to ATP", "setting": "PfcFRS; Lineweaver-Burk analysis", "value": "non-competitive inhibitor"}, {"measurement": "mode of inhibition with respect to L-Phe", "setting": "PfcFRS; Lineweaver-Burk analysis", "value": "competitive inhibitor"}, {"measurement": "IC50", "setting": "PfcFRS; aminoacylation activity, read-out: cFRS IC50, Pf", "value": 0.012, "unit": "µM"}, {"measurement": "Ki", "setting": "PfcFRS; global competitive inhibition model, saturating ATP, varying L-Phe, read-out: Ki with respect to L-Phe", "value": "0.006 ± 0.002", "unit": "µM"}, {"measurement": "Ki", "setting": "PfcFRS; non-competitive inhibition model, saturating L-Phe, varying ATP, read-out: Ki with respect to ATP", "value": "0.01 ± 0.005", "unit": "µM"}]}
